# US20170333459A1 (priority 2010, published 2017)
# Where “and” joins values, the source holds several entries; their conditions need not be identical. Equal values may be shown once.
# Assays:
# [1] = biological target: T1, human Organic Anion Transporter 1 (hOAT1) (Homo sapiens, UniProt Q4U2R8)
# T1 sequence (Q4U2R8 1-563): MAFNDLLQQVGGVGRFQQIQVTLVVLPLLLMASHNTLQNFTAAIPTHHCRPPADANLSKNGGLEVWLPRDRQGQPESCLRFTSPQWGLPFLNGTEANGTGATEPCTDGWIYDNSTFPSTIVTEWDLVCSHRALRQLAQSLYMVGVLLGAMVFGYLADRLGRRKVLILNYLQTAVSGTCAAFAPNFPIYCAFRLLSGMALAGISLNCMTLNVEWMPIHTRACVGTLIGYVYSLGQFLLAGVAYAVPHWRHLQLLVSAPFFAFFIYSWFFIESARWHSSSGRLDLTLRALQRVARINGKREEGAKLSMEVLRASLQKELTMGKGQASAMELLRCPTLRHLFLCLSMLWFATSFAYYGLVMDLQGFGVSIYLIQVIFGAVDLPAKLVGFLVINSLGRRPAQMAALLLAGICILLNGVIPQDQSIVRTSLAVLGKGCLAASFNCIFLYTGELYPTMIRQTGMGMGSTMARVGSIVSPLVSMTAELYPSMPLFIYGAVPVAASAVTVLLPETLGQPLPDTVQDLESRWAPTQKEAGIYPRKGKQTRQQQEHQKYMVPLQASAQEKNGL
# hOAT3 [2] = biological target: T2, hOAT3 (Homo sapiens, UniProt Q8TCC7); conditions: MDCK
# T2 sequence (Q8TCC7 1-542): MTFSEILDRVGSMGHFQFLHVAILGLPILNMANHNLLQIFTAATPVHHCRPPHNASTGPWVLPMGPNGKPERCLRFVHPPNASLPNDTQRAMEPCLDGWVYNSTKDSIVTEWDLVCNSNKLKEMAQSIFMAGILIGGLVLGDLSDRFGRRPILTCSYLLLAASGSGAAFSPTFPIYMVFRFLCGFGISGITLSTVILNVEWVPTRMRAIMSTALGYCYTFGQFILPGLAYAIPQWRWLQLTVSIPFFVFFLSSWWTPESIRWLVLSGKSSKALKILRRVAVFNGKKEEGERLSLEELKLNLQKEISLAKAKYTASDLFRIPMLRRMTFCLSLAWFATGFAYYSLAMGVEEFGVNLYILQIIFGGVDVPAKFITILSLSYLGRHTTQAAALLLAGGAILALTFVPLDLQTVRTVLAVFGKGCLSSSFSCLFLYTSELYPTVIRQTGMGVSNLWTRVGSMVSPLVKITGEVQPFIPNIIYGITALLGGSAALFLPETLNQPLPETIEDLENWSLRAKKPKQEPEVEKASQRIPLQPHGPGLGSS
# monkeypox virus = conditions: monkey, in vivo, iv, 20 mg/kg; cited from earlier work
# hOAT3 [3] = biological target: T2, hOAT3; set-up: host or cells: MDCK-II cells, transiently transfected; conditions: reported for hOAT3-mediated uptake; cited from earlier work
# vaccinia virus = tested on: vaccinia virus; set-up: species or system human; conditions: in vivo
# [4] = human, in vivo, po
# rabbitpox virus = tested on: rabbitpox virus; set-up: species or system rabbits; conditions: rabbit, in vivo
# [5] = human, in vivo, po; remark: listed apart in the source
# variola virus = conditions: read-out: in vitro potency; cited from earlier work
structure (smiles),measurement,setting,value
"Nc1ccn(C[C@@H](CO)OCP(=O)(O)O)c(=O)n1 [CDV, cidofovir]",Uptake (Transporter),[1]; 5 min,116 ± 22 pmol/min/cm^2 and 117 ± 15 pmol/min/cm^2
same,net uptake in hOAT1 expressing cells,[1]; MDCK,enhanced
same,uptake in the presence of OAT inhibitor probenecid,[1]; MDCK,decreased
same,net uptake in hOAT3 expressing cells,hOAT3 [2],not enhanced
same,survivors,monkeypox virus,7/8
same,lower uptake efficiency (Vmax/Km),hOAT3 [3],> 100 fold
"O=C(NN1C(=O)[C@@H]2[C@@H]3C=C[C@@H]([C@H]4C[C@@H]34)[C@@H]2C1=O)c1ccc(C(F)(F)F)cc1 [ST-246, reference compound]",clinical outcome of progressive vaccinia,vaccinia virus,improvement of progressive vaccinia
same,ST-246 levels,[4],lower
"CCCCCCCCCCCCCCCCOCCCOP(=O)(O)CO[C@H](CO)Cn1ccc(N)nc1=O [CMX001, 1-O-hexadecyloxypropyl cidofovir]",effective single dose,rabbitpox virus,20 mg/kg
same,preventing mortality,rabbitpox virus,effective in preventing mortality
same,survivors,rabbitpox virus; 20 mg/kg,11/12
same,clinical outcome of progressive vaccinia,vaccinia virus,improvement of progressive vaccinia
same,effect of 20% serum on uptake,[1]; MDCK,substantially reduced
same,net uptake in hOAT1 expressing cells,[1]; MDCK,not enhanced
same,substrate for hOAT1,[1]; MDCK,not a substrate
same,Net Transporter Uptake,"[1]; human, MDCK",−0.3 ± 5.4 pmol/min/cm^2
same,net uptake in hOAT3 expressing cells,hOAT3 [2],not enhanced
same,substrate for hOAT3,hOAT3 [2],not a substrate
same,nephrotoxicity,[5],no signs of nephrotoxicity have been observed
same,EC50,variola virus,0.1 µM
